Assay results taken from patent US9920061B2, “Imidazo[1,5-A]pyrimidinyl carboxamide compounds and their use in the treatment of medical disorders” (Lysosomal Therapeutics Inc., priority 2016, dated 2018).
Values after ≈ are worked out from the molar mass of the structure shown. Where two headings read alike, the source gives them in different places.

Tests used:
[1] = Compound solubility in water; format: physicochemical
[2] = target: T1, glucocerebrosidase (Gcase) (Homo sapiens, UniProt P04062); test: Glucocerebrosidase (Gcase) activation assay, 4-methylumbelliferyl-beta-D-glucopyranoside substrate, with saposin C; format: biochemical
T1 sequence (P04062 40-536): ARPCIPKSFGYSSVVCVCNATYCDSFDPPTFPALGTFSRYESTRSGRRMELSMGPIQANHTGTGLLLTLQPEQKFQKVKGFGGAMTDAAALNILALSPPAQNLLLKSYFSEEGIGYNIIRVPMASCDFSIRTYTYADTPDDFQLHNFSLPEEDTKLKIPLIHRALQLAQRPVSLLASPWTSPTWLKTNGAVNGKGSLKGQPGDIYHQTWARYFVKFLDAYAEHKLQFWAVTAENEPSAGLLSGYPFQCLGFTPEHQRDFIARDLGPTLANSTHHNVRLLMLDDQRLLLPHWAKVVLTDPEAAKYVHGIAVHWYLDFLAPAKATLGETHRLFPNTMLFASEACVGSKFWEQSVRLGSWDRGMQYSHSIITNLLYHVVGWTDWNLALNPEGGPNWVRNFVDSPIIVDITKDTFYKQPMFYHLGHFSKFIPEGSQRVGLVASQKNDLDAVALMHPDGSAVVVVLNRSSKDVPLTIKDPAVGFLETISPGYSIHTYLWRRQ
Procedure, shortened: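 Micellar buffer (176 mM K2HPO4/50 mM citric acid, pH 4.7; 0.32 mM triton, 0.37 mol % PS) holding 10 nM GCase and 100 nM saposin C, pre-incubated with compound 30 min at room temperature. Substrate final 2 mM before mixing; 15 min reaction, glycine pH 12.5 stop, fluorescence 365/440 nm. Screened at 1.0 and 0.1 μM; 8-point, 3-fold dose response.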

[3] = 0.1 μM test compound, read-out: Percent Gcase Activation 0.1 μM Test Compound
[4] = 1 μM test compound, read-out: Percent Gcase Activation 1 μM Test Compound
[5] = test compound at 0.1 μM, read-out: Percent Gcase Activation, 0.1 μM Test Compound
[6] = test compound at 1.0 μM, read-out: Percent Gcase Activation, 1 μM Test Compound

Structure (SMILES)	solubility [1] [µg/mL]	activation at 0.1 µM [2, 3] [%]	activation at 1 µM [2, 4] [%]	solubility ([1]; in water) [µg/mL]	activation at 0.1 µM [2, 5] [%]	activation at 1 µM [2, 6] [%]
C#CC(C)(C)NC(=O)c1ncn2c(C)cc(-c3cccc(F)c3)nc12 [III-164]	4.5 (≈ 13.4 µM)	> 20	> 60			
CCc1cc(-c2ccns2)nc2c(C(=O)NC(C3CC3)C(F)(F)F)ncn12 (stereo not drawn) [III-165]	4.7 (≈ 11.9 µM)	> 20	> 60			
CCc1cc(Oc2ccc(F)cc2)nc2c(C(=O)N[C@@H](C)C3CC3)ncn12 [III-166]	10.8 (≈ 29.3 µM)	< 10	30 to 60			
COc1cccc(-c2cc(C)n3cnc(C(=O)NC(C)C(F)(F)F)c3n2)c1 (stereo not drawn) [III-167]	2.9 (≈ 7.66 µM)	> 20	> 60			
CCOc1cccc(-c2cc(C)n3cnc(C(=O)NC(C)C(F)(F)F)c3n2)c1 (stereo not drawn) [III-168]	1.4 (≈ 3.57 µM)	> 20	> 60			
COc1cccc(-c2cc(C)n3cnc(C(=O)NC(C4CC4)C4CC4)c3n2)c1 [III-172]	4.2 (≈ 11.2 µM)	> 20	> 60			
COc1cc(F)cc(-c2cc(C)n3cnc(C(=O)NC(C4CC4)C4CC4)c3n2)c1 [III-173]	1.7 (≈ 4.31 µM)	> 20	> 60			
COc1cc(-c2cc(C)n3cnc(C(=O)NC(C4CC4)C4CC4)c3n2)ccc1F [III-174]	0.3 (≈ 0.761 µM)	> 20	> 60			
COc1cc(-c2cc(C)n3cnc(C(=O)NC(C4CC4)C4CC4)c3n2)ccc1Cl [III-175]	0.2 (≈ 0.487 µM)	10 to 20	> 60			
Cc1cc(OC2CCC2)nc2c(C(=O)NC(C3CC3)C(F)(F)F)ncn12 (stereo not drawn) [III-176]	5.5 (≈ 14.9 µM)	> 20	> 60			
Cc1cc(OC(C)C)nc2c(C(=O)NC(C3CC3)C(F)(F)F)ncn12 (stereo not drawn) [III-177]	25.4 (≈ 71.3 µM)	10 to 20	30 to 60			
Cc1cc(OC(C)C)nc2c(C(=O)NC(C3CC3)C3CC3)ncn12 [III-178]	17.4 (≈ 53 µM)	10 to 20	> 60			
Cc1cc(OC2CC2)nc2c(C(=O)NC(C3CC3)C3CC3)ncn12 [III-179]	14.3 (≈ 43.8 µM)	< 10	30 to 60			
Cc1cc(OC2CCC2)nc2c(C(=O)NC(C3CC3)C3CC3)ncn12 [III-180]	23.3 (≈ 68.4 µM)	10 to 20	> 60			
COc1cccc(-c2cc(C)n3cnc(C(=O)NC(C)(C)C(F)(F)F)c3n2)c1 [III-184]	4.3 (≈ 11 µM)	> 20	> 60			
Cc1cc(-c2cccc(Cl)c2)nc2c(C(=O)NC(C)(C)C(F)(F)F)ncn12 [III-185]	3.7 (≈ 9.32 µM)	> 20	> 60			
C#CC(C)(C)NC(=O)c1ncn2c(C)cc(-c3cccc(OC4CC4)c3)nc12 [III-186]	1.5 (≈ 4.01 µM)	> 20	> 60			

Structure (SMILES)	solubility [1] [µg/mL]	activation at 0.1 µM [2, 3] [%]	activation at 1 µM [2, 4] [%]	solubility ([1]; in water) [µg/mL]	activation at 0.1 µM [2, 5] [%]	activation at 1 µM [2, 6] [%]
C#CC(C)(C)NC(=O)c1ncn2c(C)cc(-c3cc(F)cc(OC)c3)nc12 [III-187]	0.9 (≈ 2.46 µM)	> 20	> 60			
C#CC(C)(C)NC(=O)c1ncn2c(C)cc(-c3cc(F)cc(F)c3)nc12 [III-188]	0.3 (≈ 0.847 µM)	10 to 20	> 60			
COc1cccc(-c2cc(C)n3cnc(C(=O)N[C@H](C)C4CC4)c3n2)c1 [IV-1]				8.3 (≈ 23.7 µM)	10 to 20	> 60
CCCCO[C@H]1C[C@H]2CC[C@@H](C1)[C@H]2NC(=O)c1ncn2c(COC)cc(C)nc12 [IV-2]				27.5 (≈ 68.7 µM)	> 20	> 60
CCCCO[C@H]1C[C@H]2CC[C@@H](C1)[C@@H]2NC(=O)c1ncn2c(COC)cc(C)nc12 [IV-3]				15.3 (≈ 38.2 µM)	< 10	30 to 60
CCCCO[C@H]1C[C@H]2CC[C@@H](C1)[C@H]2NC(=O)c1ncn2c(C)cc(COC)nc12 [IV-4]				16.4 (≈ 40.9 µM)	> 20	> 60
CCCCO[C@H]1C[C@H]2CC[C@@H](C1)[C@@H]2NC(=O)c1ncn2c(C)cc(COC)nc12 [IV-5]				24.3 (≈ 60.7 µM)	< 10	> 60
Cc1cc(NC(=O)c2ccccc2)nc2c(C(=O)NC(C3CC3)C(F)(F)F)ncn12 (stereo not drawn) [IV-6]				15.1 (≈ 36.2 µM)	< 10	30 to 60
Cc1cc(C)n2cnc(C(=O)N[C@H]3[C@@H]4CC[C@H]3C[C@@H](OC(C)(C)C)C4)c2n1 [IV-10]				1 (≈ 2.7 µM)	> 20	> 60
Cc1cc(C)n2cnc(C(=O)N[C@@H]3[C@@H]4CC[C@H]3C[C@@H](OC(C)(C)C)C4)c2n1 [IV-11]				4.9 (≈ 13.2 µM)	> 20	> 60
Cc1cc(-c2cccc(OC3CC3)n2)nc2c(C(=O)NC(C3CC3)C(F)(F)F)ncn12 (stereo not drawn) [IV-15]				2.1 (≈ 4.87 µM)	10 to 20	> 60
CCc1cc(N2CCN(C(C)C)C2=O)nc2c(C(=O)NC(C3CC3)C(F)(F)F)ncn12 (stereo not drawn) [IV-16]				24.6 (≈ 56.1 µM)	10 to 20	> 60
COc1cccc(-c2cc(C)n3cnc(C(=O)N[C@H](C)C(F)(F)F)c3n2)c1 [IV-21]				2.7 (≈ 7.14 µM)	10 to 20	> 60
COc1cccc(-c2cc(C)n3cnc(C(=O)N[C@@H](C)C(F)(F)F)c3n2)c1 [IV-22]				1.7 (≈ 4.49 µM)	> 20	> 60
C#CC(NC(=O)c1ncn2c(C)cc(-c3ccccc3C#N)nc12)C(F)(F)F (stereo not drawn) [IV-23]				0.6 (≈ 1.57 µM)	10 to 20	> 60
C#CC(C)(C)NC(=O)c1ncn2c(C)cc(-c3cccc4nccn34)nc12 [IV-24]				2.5 (≈ 6.98 µM)	< 10	< 30
C#CC(C)(C)NC(=O)c1ncn2c(C)cc(-c3ccc4c(c3)OCO4)nc12 [IV-26]				0.5 (≈ 1.38 µM)	10 to 20	> 60

The remaining lines, values ahead:

solubility [1] [µg/mL]	activation at 0.1 µM [2, 3] [%]	activation at 1 µM [2, 4] [%]	solubility ([1]; in water) [µg/mL]	activation at 0.1 µM [2, 5] [%]	activation at 1 µM [2, 6] [%]	Structure (SMILES)
0.7 (≈ 1.73 µM)	> 20	> 60				Cc1cc(-c2cccc(OC3CC3)c2)nc2c(C(=O)NC(C)C(F)(F)F)ncn12 (stereo not drawn) [III-169]
0.1 (≈ 0.237 µM)	> 20	> 60				COc1cc(F)cc(-c2cc(C)n3cnc(C(=O)NC(C4CC4)C(F)(F)F)c3n2)c1 (stereo not drawn) [III-170]
0.6 (≈ 1.42 µM)	> 20	> 60				COc1cc(-c2cc(C)n3cnc(C(=O)NC(C4CC4)C(F)(F)F)c3n2)ccc1F (stereo not drawn) [III-171]
1.5 (≈ 3.71 µM)	> 20	> 60				COc1cccc(-c2cc(C)n3cnc(C(=O)NC(C4CC4)C(F)(F)F)c3n2)c1 (stereo not drawn) [III-182]
0.6 (≈ 1.58 µM)	> 20	> 60				Cc1cc(-c2cccc(F)c2)nc2c(C(=O)NC(C)(C)C(F)(F)F)ncn12 [III-183]
			9.9 (≈ 26 µM)	10 to 20	> 60	Cc1cc(-c2ccns2)nc2c(C(=O)N[C@H](C3CC3)C(F)(F)F)ncn12 [IV-7]
			19.7 (≈ 51.7 µM)	10 to 20	> 60	Cc1cc(-c2ccns2)nc2c(C(=O)N[C@@H](C3CC3)C(F)(F)F)ncn12 [IV-8]
			3.9 (≈ 10.7 µM)	< 10	30 to 60	Cc1cc(-c2ccon2)nc2c(C(=O)NC(C3CC3)C(F)(F)F)ncn12 (stereo not drawn) [IV-9]
			1.9 (≈ 4.69 µM)	> 20	> 60	COc1cccc(-c2cc(C)n3cnc(C(=O)N[C@H](C4CC4)C(F)(F)F)c3n2)n1 [IV-13]
			3.2 (≈ 7.89 µM)	> 20	> 60	COc1cccc(-c2cc(C)n3cnc(C(=O)N[C@@H](C4CC4)C(F)(F)F)c3n2)n1 [IV-14]
			1.1 (≈ 2.65 µM)	> 20	> 60	Cc1cc(-c2cccc3ncoc23)nc2c(C(=O)N[C@H](C3CC3)C(F)(F)F)ncn12 [IV-17]
			0.4 (≈ 0.963 µM)	> 20	> 60	Cc1cc(-c2cccc3ncoc23)nc2c(C(=O)N[C@@H](C3CC3)C(F)(F)F)ncn12 [IV-18]
			0.7 (≈ 1.78 µM)	> 20	> 60	Cc1cc(-c2cccc(F)c2)nc2c(C(=O)N[C@H](C3CC3)C(F)(F)F)ncn12 [IV-19]
			0.7 (≈ 1.78 µM)	> 20	> 60	Cc1cc(-c2cccc(F)c2)nc2c(C(=O)N[C@@H](C3CC3)C(F)(F)F)ncn12 [IV-20]
			3.3 (≈ 7.96 µM)	< 10	< 30	Cc1cc(-c2cccc3nccn23)nc2c(C(=O)NC(C3CC3)C(F)(F)F)ncn12 (stereo not drawn) [IV-25]
